Measured values: patent US20220257774A1, “AROMATIC AMINE AR AHD BET TARGETING PROTEIN DEGRADATION CHIMERA COMPOUND AND USE” (HINOVA PHARMACEUTICALS INC., priority 2019, published 2022)
Where two headings read alike, the source gives them in different places.

Tests used:
[1] = test system: LNCaP/AR cells; experiment: Inhibition of the proliferation of LNCap/AR cells (CCK-8); assay type: cell-based; conditions: read-out: LNCap/AR IC50
How it was run: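 LNCaP/AR cells (1000/well, RPMI1640 + 10% FBS) were treated for 6 days at 37 °C with 9-point 3-fold dilutions from 10 μM final, 0.1% DMSO, in duplicate. Viability was read by CCK-8 absorbance at 450 nm after 1 h, and IC50 came from a dose-response-inhibition fit.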

[2] = test system: 22RV1 cells; experiment: Inhibition of the proliferation of drug-resistant prostate cancer cell 22RV1 (CCK-8); assay type: cell-based; conditions: 22RV1 cells (enzalutamide-resistant), same method
Method: (1) Experimental materials and instruments: LNCaP/AR cell line and 22RV1 cell line (provided by Sichuan Kangcheng Biotechnology Co., Ltd.) Fetal bovine serum FBS (Gibco, Cat. No. 10099-141) 0.01M PBS (Biosharp, Cat. No. 162262) RIPM1640 medium (Hyclone, Cat. No. 308090.01) Penicillin-Streptomycin (Hyclone, Cat. No. SV30010) Cell counting kit-8 (Signalway Antibody, Cat. No. CP002) DMSO (Sigma, Cat. No. D5879) Centrifuge Tube, 15 ml (Excell Bio, Cat. No. CS015-0001) Cell Culture Dish, (Excell Bio, Cat. No. CS016-0128) 96-well cell culture plate (Corning, Cat. No. 3599) Microplate reader (Thermo Multiskan MK3 type)
a. Preparation of Buffer Cell culture medium: RIPM1640 medium, 10% FBS, 1% Pen Strep: PBS buffer: PBS powder was dissolved in 2 L of ultrapure water and sterilized. b. Experimental Procedures 1) LNCaP/AR cells were subcultured in cell culture media, and then the cells in good growth condition were seeded in a 96-well plate at 80 μL/well (1000 cells/well), and cultured overnight in a 37° C., 5% CO2 cell incubator. 2) The drug was prepared into a 10 mM stock solution with dimethyl sulfoxide (DMSO). Prior to use, the stock solution was diluted in a ratio of […] with DMSO, and then diluted at a 3-fold gradient to obtain 9 serial concentrations. Then, each concentration of compound was further diluted in a ratio of 1:200 with the culture medium (to ensure that the DMSO concentration in the culture system was 0.1%), and two wells were set for each concentration. 20 μL of the diluted compound solution was added to the well of the cell culture (with a final concentration of 10 μM, 3.3 μM, 1.1 μM . . . ), and then the plate was gently tapped to thoroughly mix. In addition, the experiment included 3 negative control wells only containing cells and 3 blank control wells only containing culture medium (6 wells were each added with DMSO diluted in a ratio of 1:200 with 20 μL of culture medium). c. Result Detection: 1) After culturing for 6 days, 10 μL of CCK-8 was added to each well, and the plate was further incubated for 1 h in a 37° C., 5% CO2 cell incubator. 2) The absorbance (OD value) was measured at 450 nm with a multifunctional microplate reader. 3) The data was analyzed by the Dose-response-inhibition equation in the software GraphPad Prism5, and the IC50 value was obtained. 2. Biological assay of the inhibition on the proliferation of other drug-resistant prostate cancer cells
The same test method was used to determine the inhibitory activity of the compound according to the present invention against drug-resistant prostate cancer cell 22RV1.

[3] = 144 h, LNCaP/AR cells, 6 days culture, CCK-8
[4] = LNCaP/AR cells, 6 days culture, CCK-8

Row | IC50 ([2]; Homo sapiens) [nM] | IC50 [1, 3] [nM] | IC50 [1, 4] [nM] | IC50 [2] [nM] | Compound | IC50 ([1]; LNCaP/AR, 144 h) [nM]
1 | 501 to 2000 | > 2000 |  |  | Cc1ccc(-c2c(C)noc2C)cc1N(C[C@H]1C[C@@H]1CNc1ccc2c(c1)CN(C1CCC(=O)NC1=O)C2=O)c1ccc(C2(C#N)CC2)cc1 (stereo partly shown) [Compound 187] | 
2 |  |  | < 100 | > 2000 | Cc1ccc(-c2c(C)noc2C)cc1N(CC(C)OC1CN(c2cc3c(cc2F)CN(C2CCC(=O)NC2=O)C3=O)C1)c1ccc(C2(C#N)CC2)cc1 (stereo not shown) [Compound 177] | 
3 |  |  | < 100 | > 2000 | Cc1ccc(-c2c(C)noc2C)cc1N(CC1CCC(Nc2cc3c(cc2F)C(=O)N(C2CCC(=O)NC2=O)C3)CC1)c1ccc(C2(C#N)CC2)cc1 (stereo not shown) [Compound 163, 1-(4-((5-(3,5-Dimethylisoxazol-4-yl)-2-methylphenyl)(((1s,4s)-4-((2-(2,6-dioxopiperidin-3)-6-fluoro-1-isoindolinone-5-yl)amino)cyclohexyl)methyl)amino)phenyl)phenylcyclopropanecarbonitrile] | 
4 | > 2000 | 501 to 2000 |  |  | Cc1ccc(-c2c(C)noc2C)cc1N(CCCNc1cc2c(cc1F)CN(C1CCC(=O)NC1=O)C2=O)c1ccc(C2(C#N)CC2)cc1 (stereo not shown) [Compound 175, 1-(4-((5-(3,5-dimethylisoxazol-4-yl)-2-methylphenyl)(3-((2-(2,6-dioxopiperidin-3-yl)-6-fluoro-3-oxoisoindolin-5-yl)amino)propyl)amino)phenyl)cyclopropane-1-nitrile] | 
5 |  |  | 101 to 500 | 101 to 500 | Cc1ccc(-c2c(C)noc2C)cc1N(C[C@H]1CC[C@H](Nc2cc3c(cc2F)CN(C2CCC(=O)NC2=O)C3=O)CC1)c1ccc(C2(C#N)CC2)c(Cl)c1 (stereo partly shown) [Compound 114] | 
6 |  |  | 101 to 500 | < 100 | Cc1ccc(-c2c(C)noc2C)cc1N(CCC1CN(c2cc3c(cc2F)C(=O)N(C2CCC(=O)NC2=O)C3=O)C1)c1ccc(C2(C#N)CC2)cc1 (stereo not shown) [Compound 130, 1-(4-((5-(3,5-dimethylisoxazol-4-yl)-2-methylphenyl)(2-(1-(2-(2,6-dioxopiperidin-3-yl)-6-fluoro-1,3-dioxoisoindolin-5-yl)azetidin-3-yl)ethyl)amino)phenyl)cyclopropane-1-carbonitrile] | 
7 | 101 to 500 | > 2000 |  |  | Cc1ccc(-c2c(C)noc2C)cc1N(C[C@H]1C[C@@H]1CNc1cc2c(cc1F)C(=O)N(C1CCC(=O)NC1=O)C2=O)c1ccc(C2(C#N)CC2)cc1 (stereo partly shown) [Compound 181] | 
8 | > 2000 | > 2000 |  |  | Cc1ccc(-c2c(C)noc2C)cc1N(CC1CCC(Nc2cc3c(cc2F)C(=O)N(C2CCC(=O)NC2=O)C3=O)CC1)c1ccc(C2(C#N)CC2)cc1 (stereo not shown) [Compound 161, 1-(4-((5-(3,5-dimethylisoxazol-4-yl)-2-methylphenyl)(((1s,4s)-4-((2-(2,6-dioxopiperidin-3-yl)-6-fluoro-1,3-dicarbonylisoindolin-5-yl)amino)cyclohexyl)methyl)amino)phenyl) phenylcyclopropanecarbonitrile] | 

Continued, compound first:

Row | Compound | IC50 ([2]; Homo sapiens) [nM] | IC50 [1, 3] [nM] | IC50 [1, 4] [nM] | IC50 [2] [nM] | IC50 ([1]; LNCaP/AR, 144 h) [nM]
9 | Cc1ccc(-c2c(C)noc2C)cc1N(CCCCNc1cc2c(cc1F)CN(C1CCC(=O)NC1=O)C2=O)c1ccc(C#N)c(Cl)c1 (stereo not shown) [Compound 166, 2-Chloro-4-((5-(3,5-dimethylisoxazol-4-yl)-2-methylphenyl)(4-((2-(2,6-dioxopiperidin-3)-6-fluoro-3-isoindolinone-5-yl)amino)butyl)amino)benzonitrile] | < 100 |  |  |  | 101 to 500
10 | Cc1ccc(-c2c(C)noc2C)cc1N(c1ccc(C2(C#N)CC2)cc1)C1CN(CC2CN(c3ccc4c(c3)C(=O)N(C3CCC(=O)NC3=O)C4=O)C2)C1 (stereo not shown) [Compound 67, 1-(4-((5-(3,5-dimethylisoxazol-4-yl)-2-methylphenyl)(1-((1-(2-(2,6-dioxopiperidin-3-yl)-1,3-dioxoisoindolin-5-yl)azetidin-3-yl)methyl)azetidine-3-yl)amino)phenyl)cyclopropane-1-carbonitrile] | < 100 | 101 to 500 |  |  | 
11 | Cc1ccc(-c2c(C)noc2C)cc1N(CCCCNc1ccc2c(c1)C(=O)N(C1CCC(=O)NC1=O)C2=O)c1ccc(C2(C#N)CC2)cc1 (stereo not shown) [Compound 41, 1-(4-((5-(3,5-Dimethylisoxazol-4-yl)-2-methylphenyl)(4-((2-(2,6-dioxopiperidin-3-yl)-1,3-dioxoisoindolin-5-yl)amino)butyl)amino)phenyl)cyclopropane-1-nitrile] | < 100 | 101 to 500 |  |  | 
12 | Cc1ccc(-c2c(C)noc2C)cc1N(CC1CN([C@H]2C[C@H](Nc3cc4c(cc3F)C(=O)N(C3CCC(=O)NC3=O)C4=O)C2)C1)c1ccc(C2(C#N)CC2)cc1 (stereo partly shown) [Compound 72, 1-(4-((5-(3,5-dimethylisoxazol-4-yl)-2-methylphenyl][(1-((1r,3r)-3-((2-(2,6-dioxopiperidin-3-yl)-6-fluoro-1,3-dioxoisoindolin-5-yl)amino)cyclobutyl)azetidin-3-yl)methyl)amino)phenyl)cyclopropane-1-nitrile] | > 2000 | > 2000 |  |  | 
13 | Cc1ccc(-c2c(C)noc2C)cc1N(c1ccc(C2(C#N)CC2)cc1)C1CN(C2CC(Nc3cc4c(cc3F)C(=O)N([C@H]3CCC(=O)NC3=O)C4)C2)C1 (stereo partly shown) [Compound 69, 1-(4-((5-(3,5-dimethylisoxazol-4-yl)-2-methylphenyl)(1-((1 s,3s)-3-((2-(2,6-dioxopiperidin-3-yl)-6-fluoro-1-oxoisoindolin-5-yl)amino)cyclobutyl)azetidin-3-yl)amino)phenyl)cyclopropane-1-nitrile] |  |  | > 2000 | > 2000 | 
14 | Cc1ccc(-c2c(C)noc2C)cc1N(CC1CCN(C2CCN(c3ccc4c(c3)C(=O)N(C3CCC(=O)NC3=O)C4=O)CC2)CC1)c1ccc(C2(C#N)CC2)cc1 (stereo not shown) [Compound 77, 1-(4-((5-(3,5-dimethylisoxazol-4-yl)-2-methylphenyl)((1′-(2-(2,6-dioxopiperidin-3-yl)-1,3-dioxoisoindolin-5-yl)-[1,4′-bipiperidine]-4-yl)methyl)amino)phenyl)cyclopropane-1-nitrile] | > 2000 |  |  |  | > 2000
15 | Cc1ccc(-c2c(C)n[nH]c2C)cc1N(CCCCCOCC(=O)N[C@H](C(=O)N1C[C@H](O)C[C@H]1C(=O)N[C@@H](C)c1ccc(-c2scnc2C)cc1)C(C)(C)C)c1ccc(C#N)c(Cl)c1 [Compound 44, (2S,4R)-1-((S)-2-(2-((5-((3-chloro-4-cyanophenyl)(5-(3,5-dimethyl-1H-pyrazol-4-yl)-2-methylphenyl)amino)pentyl)oxy)acetylamino)-3,3-dimethylbutyryl)-4-hydroxy-N—((S)-1-(4-(4-methylthiazol-5-yl)phenyl)ethyl)pyrrolidinyl-2-formamide] | > 2000 |  |  |  | 101 to 500
16 | Cc1ccc(-c2c(C)noc2C)cc1N(CCN1CCN(c2ccc3c(c2)CN(C2CCC(=O)NC2=O)C3=O)CC1)c1ccc(C2(C#N)CC2)cc1 (stereo not shown) [Compound 65, 1-(4-((5-(3,5-dimethylisoxazol-4-yl)-2-methylphenyl)(2-(4-(2-(2,6-dioxopiperidin-3-yl)-1-oxoisoindolin-5-yl)piperazin-1-yl)ethyl)amino)phenyl)cyclopropane-1-nitrile] | 101 to 500 | 501 to 2000 |  |  | 
17 | Cc1ccc(-c2c(C)noc2C)cc1N(C[C@H]1CC[C@H](CNc2cc3c(cc2F)CN(C2CCC(=O)NC2=O)C3=O)CC1)c1ccc(C#N)c(Cl)c1 (stereo partly shown) [Compound 136] | 101 to 500 |  |  |  | 501 to 2000
